Measured values taken from the CheMixHub viscosity set.
± gives the uncertainty stated by the source.

Test: xn = mol fraction of the nth substance listed

Compound COc1ccccc1 + CC1COC(=O)O1 has a viscosity (293.15 K, 101.33 kPa, x2 = 0.0794) of 1.142 ± 0.013 mPa·s, a viscosity (293.15 K, 101.33 kPa, x2 = 0.1323) of 1.199 ± 0.014 mPa·s and a viscosity (293.15 K, 101.33 kPa, x2 = 0.2487) of 1.316 ± 0.015 mPa·s. For the same compound, the viscosity (293.15 K, 101.33 kPa, x2 = 0.3578) was 1.449 ± 0.017 mPa·s, the viscosity (293.15 K, 101.33 kPa, x2 = 0.4971) was 1.64 ± 0.019 mPa·s and the viscosity (293.15 K, 101.33 kPa, x2 = 0.5795) was 1.773 ± 0.02 mPa·s. It also gave a viscosity (293.15 K, 101.33 kPa, x2 = 0.6669) of 1.917 ± 0.022 mPa·s, a viscosity (293.15 K, 101.33 kPa, x2 = 0.7278) of 2.031 ± 0.023 mPa·s and a viscosity (293.15 K, 101.33 kPa, x2 = 0.835) of 2.246 ± 0.025 mPa·s. It also gave a viscosity (293.15 K, 101.33 kPa, x2 = 0.9009) of 2.406 ± 0.027 mPa·s, a viscosity (303.15 K, 101.33 kPa, x2 = 0.0794) of 0.971 ± 0.011 mPa·s and a viscosity (303.15 K, 101.33 kPa, x2 = 0.1323) of 1.013 ± 0.012 mPa·s. For the same compound, the viscosity (303.15 K, 101.33 kPa, x2 = 0.2487) was 1.101 ± 0.013 mPa·s, the viscosity (303.15 K, 101.33 kPa, x2 = 0.3578) was 1.212 ± 0.014 mPa·s and the viscosity (303.15 K, 101.33 kPa, x2 = 0.4971) was 1.372 ± 0.016 mPa·s. It also gave a viscosity (303.15 K, 101.33 kPa, x2 = 0.5795) of 1.479 ± 0.017 mPa·s, a viscosity (303.15 K, 101.33 kPa, x2 = 0.6669) of 1.591 ± 0.018 mPa·s and a viscosity (303.15 K, 101.33 kPa, x2 = 0.7278) of 1.682 ± 0.019 mPa·s. For the same compound, the viscosity (303.15 K, 101.33 kPa, x2 = 0.835) was 1.851 ± 0.021 mPa·s, the viscosity (303.15 K, 101.33 kPa, x2 = 0.9009) was 1.978 ± 0.022 mPa·s and the viscosity (313.15 K, 101.33 kPa, x2 = 0.0794) was 0.849 ± 0.01 mPa·s. The viscosity (313.15 K, 101.33 kPa, x2 = 0.1323) was 0.889 ± 0.01 mPa·s, the viscosity (313.15 K, 101.33 kPa, x2 = 0.2487) was 0.972 ± 0.011 mPa·s and the viscosity (313.15 K, 101.33 kPa, x2 = 0.3578) was 1.066 ± 0.012 mPa·s. The viscosity (313.15 K, 101.33 kPa, x2 = 0.4971) was 1.177 ± 0.013 mPa·s, the viscosity (313.15 K, 101.33 kPa, x2 = 0.5795) was 1.26 ± 0.014 mPa·s and the viscosity (313.15 K, 101.33 kPa, x2 = 0.6669) was 1.347 ± 0.015 mPa·s. For the same compound, the viscosity (313.15 K, 101.33 kPa, x2 = 0.7278) was 1.423 ± 0.016 mPa·s, the viscosity (313.15 K, 101.33 kPa, x2 = 0.835) was 1.569 ± 0.018 mPa·s and the viscosity (313.15 K, 101.33 kPa, x2 = 0.9009) was 1.671 ± 0.019 mPa·s.

Work on CC(=O)N(C)c1ccccc1 + c1ccncc1 yielded a viscosity (298.15 K, 101 kPa, x1 = 0.0361) of 0.967 ± 0.19 mPa·s, a viscosity (298.15 K, 101 kPa, x1 = 0.06268) of 1.022 ± 0.2 mPa·s and a viscosity (298.15 K, 101 kPa, x1 = 0.09446) of 1.082 ± 0.22 mPa·s.

With CCCCn1cc[n+](C)c1.O=S(=O)([O-])C(F)(F)F + O the viscosity (308.15 K, 101 kPa, x2 = 0.3999) was 19.95 ± 1.4 mPa·s and the viscosity (323.15 K, 101 kPa, x2 = 0.901) was 3.005 ± 0.27 mPa·s.

For COc1ccccc1 + CC(C)(C)O, the viscosity (303.15 K, 100.33 kPa, x1 = 0.1) was 2.101 ± 0.019 mPa·s, the viscosity (303.15 K, 100.33 kPa, x1 = 0.1999) was 1.758 ± 0.015 mPa·s and the viscosity (303.15 K, 100.33 kPa, x1 = 0.3002) was 1.484 ± 0.013 mPa·s. For the same compound, the viscosity (303.15 K, 100.33 kPa, x1 = 0.4001) was 1.272 ± 0.011 mPa·s, the viscosity (303.15 K, 100.33 kPa, x1 = 0.5) was 1.143 ± 0.01 mPa·s and the viscosity (303.15 K, 100.33 kPa, x1 = 0.6001) was 1.011 ± 0.009 mPa·s. The viscosity (303.15 K, 100.33 kPa, x1 = 0.6998) was 0.954 ± 0.008 mPa·s, the viscosity (303.15 K, 100.33 kPa, x1 = 0.8001) was 0.928 ± 0.008 mPa·s and the viscosity (303.15 K, 100.33 kPa, x1 = 0.9001) was 0.919 ± 0.008 mPa·s. For the same compound, the viscosity (313.15 K, 100.33 kPa, x1 = 0.1) was 1.585 ± 0.014 mPa·s, the viscosity (313.15 K, 100.33 kPa, x1 = 0.1999) was 1.29 ± 0.012 mPa·s and the viscosity (313.15 K, 100.33 kPa, x1 = 0.3002) was 1.099 ± 0.01 mPa·s. For the same compound, the viscosity (313.15 K, 100.33 kPa, x1 = 0.4001) was 1.002 ± 0.009 mPa·s, the viscosity (313.15 K, 100.33 kPa, x1 = 0.5) was 0.915 ± 0.008 mPa·s and the viscosity (313.15 K, 100.33 kPa, x1 = 0.6001) was 0.853 ± 0.008 mPa·s. For the same compound, the viscosity (313.15 K, 100.33 kPa, x1 = 0.6998) was 0.825 ± 0.007 mPa·s, the viscosity (313.15 K, 100.33 kPa, x1 = 0.8001) was 0.808 ± 0.007 mPa·s and the viscosity (313.15 K, 100.33 kPa, x1 = 0.9001) was 0.798 ± 0.007 mPa·s. The viscosity (323.15 K, 100.33 kPa, x1 = 0.1) was 1.222 ± 0.011 mPa·s, the viscosity (323.15 K, 100.33 kPa, x1 = 0.1999) was 1.022 ± 0.009 mPa·s and the viscosity (323.15 K, 100.33 kPa, x1 = 0.3002) was 0.887 ± 0.008 mPa·s. The viscosity (323.15 K, 100.33 kPa, x1 = 0.4001) was 0.815 ± 0.008 mPa·s, the viscosity (323.15 K, 100.33 kPa, x1 = 0.5) was 0.773 ± 0.007 mPa·s and the viscosity (323.15 K, 100.33 kPa, x1 = 0.6001) was 0.743 ± 0.007 mPa·s. For the same compound, the viscosity (323.15 K, 100.33 kPa, x1 = 0.6998) was 0.722 ± 0.007 mPa·s, the viscosity (323.15 K, 100.33 kPa, x1 = 0.8001) was 0.711 ± 0.006 mPa·s and the viscosity (323.15 K, 100.33 kPa, x1 = 0.9001) was 0.701 ± 0.006 mPa·s.

For C1CCOC1 + CN(C)C=O, the viscosity (298.15 K, 101 kPa, x2 = 0.0988) was 0.47 ± 0.02 mPa·s, the viscosity (298.15 K, 101 kPa, x2 = 0.1978) was 0.482 ± 0.02 mPa·s and the viscosity (298.15 K, 101 kPa, x2 = 0.2971) was 0.496 ± 0.021 mPa·s. For the same compound, the viscosity (298.15 K, 101 kPa, x2 = 0.3967) was 0.518 ± 0.021 mPa·s, the viscosity (298.15 K, 101 kPa, x2 = 0.4966) was 0.547 ± 0.022 mPa·s and the viscosity (298.15 K, 101 kPa, x2 = 0.5967) was 0.586 ± 0.024 mPa·s. For the same compound, the viscosity (298.15 K, 101 kPa, x2 = 0.6971) was 0.63 ± 0.025 mPa·s, the viscosity (298.15 K, 101 kPa, x2 = 0.7978) was 0.679 ± 0.027 mPa·s and the viscosity (298.15 K, 101 kPa, x2 = 0.8988) was 0.737 ± 0.029 mPa·s. It also gave a viscosity (308.15 K, 101 kPa, x2 = 0.0988) of 0.434 ± 0.019 mPa·s, a viscosity (308.15 K, 101 kPa, x2 = 0.1978) of 0.444 ± 0.019 mPa·s and a viscosity (308.15 K, 101 kPa, x2 = 0.2971) of 0.458 ± 0.02 mPa·s. It also gave a viscosity (308.15 K, 101 kPa, x2 = 0.3967) of 0.476 ± 0.02 mPa·s, a viscosity (308.15 K, 101 kPa, x2 = 0.4966) of 0.502 ± 0.021 mPa·s and a viscosity (308.15 K, 101 kPa, x2 = 0.5967) of 0.533 ± 0.022 mPa·s. The viscosity (308.15 K, 101 kPa, x2 = 0.6971) was 0.57 ± 0.023 mPa·s, the viscosity (308.15 K, 101 kPa, x2 = 0.7978) was 0.614 ± 0.025 mPa·s and the viscosity (308.15 K, 101 kPa, x2 = 0.8988) was 0.659 ± 0.026 mPa·s. It also gave a viscosity (318.15 K, 101 kPa, x2 = 0.0988) of 0.41 ± 0.018 mPa·s, a viscosity (318.15 K, 101 kPa, x2 = 0.1978) of 0.431 ± 0.019 mPa·s and a viscosity (318.15 K, 101 kPa, x2 = 0.2971) of 0.454 ± 0.019 mPa·s. It also gave a viscosity (318.15 K, 101 kPa, x2 = 0.3967) of 0.478 ± 0.02 mPa·s, a viscosity (318.15 K, 101 kPa, x2 = 0.4966) of 0.502 ± 0.021 mPa·s and a viscosity (318.15 K, 101 kPa, x2 = 0.5967) of 0.523 ± 0.022 mPa·s. It also gave a viscosity (318.15 K, 101 kPa, x2 = 0.6971) of 0.545 ± 0.022 mPa·s, a viscosity (318.15 K, 101 kPa, x2 = 0.7978) of 0.568 ± 0.023 mPa·s and a viscosity (318.15 K, 101 kPa, x2 = 0.8988) of 0.592 ± 0.024 mPa·s.
